We go through 6 molecules from patent US20210002265A1, “PYRAZOLE DERIVATIVES AS INHIBITORS OF THE WNT SIGNALLING PATHWAY” (Université de Lausanne, priority 2018, published 2021).

In general, IC50 refers to the concentration that inhibits the measured activity by half. A high value points to a need for much substance.

One data set deals with TNBC cell lines. Conditions: different TNBC cell lines, FIG. 8. How it is done: TNBC cell lines were seeded at previously determined concentrations in 6-well plates and incubated for 24 h. The cells were then treated with the compounds or DMSO only and the colony formation followed daily by visual inspection. Once the colonies were big enough (70-100 cells), the cells were fixed with a solution of 4% PFA in PBS pH 7.4. The colonies were then stained using a solution of 1% Crystal violet and images taken of the individual wells to count the number of colonies. The colony counting and analysis was done using ImageJ.

The subject of another data set is DVL2 in HCC 1395 cells. Conditions: 50 μM, FIG. 5. As to the method: (§1) Cells were seeded to 70-80% confluency in 12-well plates and incubated overnight. The medium was then changed for medium containing compound or DMSO and the cells pre-incubated for 1 h. […] After washing the cells with ice cold PBS, the cells were lysed by addition of 70 μl RIPA buffer (50 mM Tris pH 7.4, 1% Triton X-100, 0.1% SDS, 150 mM NaCl, 1 mM EDTA, 1 mM DTT, protease inhibitors (Roche)) containing phosphatase inhibitors if needed (4 mM NaF, 4 mM Imidazole, 2.3 mM Na2MoO4, 4 mM Na3VO4, 8 mM M C4H4Na2O6*2H2O, 2 mM Na4P2O7, 2 mM β-Glycerophosphate) and shaking 10 min on ice. The cell lysate was collected and centrifuged for 15 min at 16000 g at 4° C. to remove cell debris. The samples were equilibrated using the Bradford method and further separated and analyzed by SDS-PAGE and Western blot respectively.
(§2) The effects of compound 1 on the upper-level phosphoprotein DVL was examined. The phosphoprotein DVL is phosphorylated on over 40 sites upon Wnt-pathway activation, which can be detected as a shift when analysed by electrophoresis.

The next data set deals with DVL2 and DVL3 in L-cells. As to conditions: 50 μM, FIG. 5. How it is done: as §1, §2
Data set [1] is described as follows: In vivo pharmacokinetic profiling and tissue analysis. Conditions: tumour bearing mice. How it is done:
An in vivo experiment was performed to get a rough ADME profile and a first impression of the tolerability of the compounds and to determine any acute toxicity. […] Blood samples were taken at regular intervals for studying the kinetics.

The test system of data set [2] is Renilla luciferase expressed under control of CMV promoter. Conditions: FIG. 2. How it is done:
(§3) Wnt-3a whole pathway activation (circle); LiCl activation of downstream elements only (square); Renilla, control for cell well-being (triangle).
(§4) For the screens, BT-20 cells, stably transfected with the TOPFlash reporter plasmid were seeded at 15K cells per well in white tissue-culture-treated 96-well plates (Greiner) and incubated overnight. If needed, the cells were additionally transfected with the pRL-CMV plasmid using the X-tremeGENE HP DNA transfection reagent (Roche) according to the manufacturer's protocol and again incubated overnight. […] The medium was then removed and 12 μl 10% sucrose solution was added to the cells to prevent drying. […] Data was analyzed using the Prism 6 Software (GraphPad).

The subject of data set [3] is Wnt pathway downstream part activated by LiCl. As to conditions: LiCl activation, FIG. 2. How it is done: as §3, §4
For data set [4] the following is noted: microsomal assay.
The subject of data set [5] is Wnt pathway (Wnt3a-stimulated) in BT-20 cells. Description: TOPFlash reporter assay, Wnt3a activation. In kind it is cell-based. Conditions: for Efficacy (%): average efficacy, BT-20 TOPFlash; for Efficacy (%) / IC50: Wnt3a 250 ng/ml; for IC50: average potency, BT-20 cells stably transfected with TOPFlash reporter.
Description: A commercial (ChemDiv Inc., San Diego, Calif., US) small molecule library (high-diversity GPCR-targeted compound library containing 1000 compounds selected by ChemDiv focusing on maximizing chemical diversity from the 40′000 GPCR-targeted compound library [see http://www.chemdiv.com, particularly http://www.chemdiv.com/gpcr-target-platform-library-2/]) containing 1000 compounds was screened for Wnt pathway inhibitory effect using the TOPflash assay. […] In a first round of screening, 34 randomly chosen compounds resembling compound 1, but presenting some intravariance were tested for their ability to inhibit the Wnt pathway, using the TOPFLash reporter assay.
as §4
Background: Reporter assays use an easily measured gene product as a stand-in for the process of interest.

The test system of the next data set is HCC 1395. As to conditions: MTT, HCC 1395, 72 h. How it is done:
(§5) TNBC cell lines and were seeded at previously determined concentrations in 96-well plates and incubated for 24 h. The next day, the medium was replaced with medium containing either compound or the respective amount of DMSO for the controls. The proliferation was measured after 72 h, by addition of a solution of 1 mg/ml thiazolyl blue (Roth) in PBS, further incubation for 2 h-4 h at 37° C., and lysis of the cells by addition of 50 μl DMSO. The absorbance was read at 570 nm using the Victor3 Multilabel Counter (PerkinElmer).

The test system of a further data set is HCC 1806. As to conditions: MTT, HCC 1806, 72 h. As to the method:
as §5

Another data set concerns MDA-MB 231. Conditions: MTT, MDA-MB 231, 72 h. How it is done:
as §5

The next data set concerns BT-20. As to conditions: MTT, BT-20, 72 h. How it is done:
as §5

For the next data set, the system named is MDA-MB 468. Conditions: MTT, MDA-MB 468, 72 h. How it is done: as §5
The subject of data set [6] is total β-catenin in L-cells. Conditions: 50 μM, FIG. 4. How it is done:
as §1

The subject of data set [7] is active β-catenin in HCC 1395 cells. As to conditions: 50 μM, FIG. 4. As to the method:
as §1

In data set [8] the test system is cytoplasmic β-catenin in BT-20 cells. Conditions: 50 μM, Wnt3a or LiCl, FIG. 3. How it is done:
as §1

In the case of `Cc1ccc2[nH]cc(CCNC(=O)CCc3cn(-c4ccccc4)nc3-c3ccc4c(c3)OCO4)c2c1` [Compound 1], the colony formation result in the data set on TNBC cell lines was “inhibition of colony formation”. For the same molecule, the “DVL2 phosphorylation shift upon Wnt3a stimulation” value in the data set with DVL2 in HCC 1395 cells was “clearly inhibited the shift”. Further, the “DVL2 and DVL3 phosphorylation shift upon Wnt3a stimulation” value in the data set on DVL2 and DVL3 in L-cells is recorded as “clearly inhibited the shift”. In addition, in [1], the “mean concentration achieved in the breast” value is reported as “around 20 μM”; the “Tissue concentration, Breast” value amounted to 92.1 µM; the “Tissue concentration, Faeces” value amounted to 0.1 µM; the “Tissue concentration, Intestine” value turned out to be 44.0 µM. Further, in [1], the “Tissue concentration, Liver” value is 136.9 µM; the “Tissue concentration, Lung” value stood at 6.2 µM; the “Tissue concentration, Plasma” value worked out at 3.9 µM; the “Tissue concentration, Tumor” value worked out at 154.3 µM. In addition, in data set [1], the “Tissue concentration, Urine” value stood at 6.6 µM. The “levels of Renilla luciferase (cell well-being control)” value in data set [2] is on record as “not changing the levels of Renilla luciferase”. Also, in data set [3], the “inhibition when downstream part of the pathway is activated by LiCl” value is “do not inhibit”. In data set [4], the “CYP stability (% compound after 60 min)” value amounted to 33% and the “CYP UGT stability (% compound after 60 min)” value is 49%. In addition, the “suppression of Wnt3a-stimulated pathway activation” value in data set [5] (Wnt-3a whole pathway activation, FIG. 2) is on record as “efficient in specific suppression of the Wnt3a-stimulated pathway activation”. In addition, in [5], the “Efficacy (%)” value came to 86.3% and the IC50 is 11 µM. In the data set on HCC 1395, the “Efficiency (%)” value is given as 90% and the IC50 was determined as 8 µM. Moreover, in the data set with HCC 1806, the “Efficiency (%)” value stood at 79% and inhibition was half-maximal at 18 µM (IC50). In addition, in the data set on MDA-MB 231, the “Efficiency (%)” value came out at 63% and 6 µM corresponded to half-maximal inhibition (IC50). Further, in the data set on BT-20, the “Efficiency (%)” value is on record as 90% and the IC50 came out at 15 µM. In the data set on MDA-MB 468, the “Efficiency (%)” value is given as 93% and the IC50 worked out at 12 µM. Besides, the “total β-catenin levels” value in data set [6] was “clear decrease”. In addition, the “active β-catenin levels” value in [7] was “decrease in the active-β catenin levels”. Also, the “accumulation of cytoplasmic β-catenin” value in [8] is on record as “essentially recapitulating the results obtained using TopFlash”.
`O=C(CCc1cn(-c2ccccc2)nc1-c1ccc2c(c1)OCO2)NCCc1ccco1` [Compound 7]: in data set [5], the “Efficacy (%)” value is listed as 85.0% and inhibition was half-maximal at 15.2 µM (IC50).
The corresponding values for `O=C(CCc1cn(-c2ccccc2)nc1-c1ccc2c(c1)OCO2)NCCc1ccccc1` [Compound 11] are 88.4% and 5.2 µM.
The corresponding values for `O=C(CCc1cn(-c2ccccc2)nc1-c1ccc2c(c1)OCO2)NCCc1cccs1` [Compound 13] are 77.0% and 6.5 µM.
Take `Cc1ccccc1Cn1cc(-c2ccncc2)cc1C(=O)N1CCN(c2ccccc2)CC1` [Compound 24]: in data set [1], the “mean concentration achieved in the breast” value is recorded as “around 8 μM”; the “Tissue concentration, Breast” value amounted to 8.6 µM; the “Tissue concentration, Faeces” value amounted to 0.1 µM; the “Tissue concentration, Intestine” value stood at 0.3 µM. Besides, in [1], the “Tissue concentration, Liver” value amounted to 0.3 µM; the “Tissue concentration, Lung” value was 0.3 µM; the “Tissue concentration, Plasma” value amounted to 0.3 µM; the “Tissue concentration, Tumor” value is 0.3 µM. Further, the “Tissue concentration, Urine” value in data set [1] came to 0.1 µM. In data set [4], the “CYP stability (% compound after 60 min)” value was determined as 67% and the “CYP UGT stability (% compound after 60 min)” value is given as 76%. Moreover, in [5], the “Efficacy (%)” value amounted to 94.8% and the IC50 was determined as 18.3 µM.
As to `O=C(Nc1ccccc1)N1CCC(n2nc(-c3ccccc3)cc2-c2ccccc2)CC1` [Compound 26], in data set [5], the “Efficacy (%)” value is on record as 72.7% and the midpoint of inhibition, the IC50, lay at 16.5 µM.
